From patent US6620585B1, “Use of ectoenzymes and secreted enzymes to monitor cellular proliferation” (priority 2000, dated 2003)
Values after ≈ are worked out from the molar mass of the structure shown. Positions of bridges follow the written chain, without caps; N, C: chain ends. Non-standard residues stand in square brackets, D forms with d. Residues, ends and D or L forms follow the SMILES beside them. *: point of attachment. Ileψ(thiazoline)Cys = CC[C@H](C)[C@H](N)C1=N[C@H](C(=O)*)CS1; dOrn = NCCC[C@@H](N)C(=O)O

test system: bacterial strain engineered for expression of an antisense complementary to a proliferation-required 50S ribosomal protein (rplL and rplJ); experiment: not given; assay type: cell-based, E. coli; conditions: antisense to rplL and rplJ induced, 400 μM IPTG; growth by light scattering at 595 nm, mid-exponential time point
Protocol: The effectiveness of the above assays was validated using proliferation-required genes from E. coli which were identified using procedures similar to those described above. Antibiotics of various chemical classes and modes of action were purchased from Sigma Chemicals (St. Louis, Mo.). Stock solutions were prepared by dissolving each antibiotic in an appropriate aqueous solution based on information provided by the manufacturer. The final working solution of each antibiotic contained no more than 0.2% (w/v) of any organic solvent. To determine their potency against a bacterial strain engineered for expression of an antisense complementary to a proliferation-required 50S ribosomal protein, each antibiotic was serially diluted two or three fold in growth medium supplemented with the appropriate antibiotic for maintenance of the anti-sense construct. At least ten dilutions were prepared for each antibiotic. 25 μL aliquots of each dilution were transferred to discrete wells of a 384-well microplate (the assay plate) using a multi-channel pipette. Quadruplicate wells were used for each dilution of an antibiotic under each treatment condition (plus and minus inducer). Each assay plate contained twenty wells for cell growth controls (growth media replacing antibiotic), ten wells for each treatment (plus and minus inducer, in this example IPTG). Assay plates were usually divided into the two treatments: half the plate containing induced cells and an appropriate concentrations of inducer (in this example IPTG) to maintain the state of induction, the other half containing non-induced cells in the absence of IPTG.
Cells for the assay were prepared as follows. Bacterial cells containing a construct, from which expression of antisense nucleic acid complementary to rplL and rplJ, which encode proliferation-required 50S ribosomal subunit proteins, is inducible in the presence of IPTG, were grown into exponential growth (OD600 0.2 to 0.3) and then diluted 1:100 into fresh media containing either 400 μM or 0 μM inducer (IPTG). These cultures were incubated at 37° C. for 2.5 hr. After a 2.5 hr incubation, induced and non-induced cells were respectively diluted into an assay medium at a final OD600 value of 0.0004. The medium contained an appropriate concentration of the antibiotic for the maintenance of the antisense construct. In addition, the medium used to dilute induced cells was supplemented with 800 μM IPTG so that addition to the assay plate would result in a final IPTG concentration of 400 μM. Induced and non-induced cell suspensions were dispensed (25 μl/well) into the appropriate wells of the assay plate as discussed previously. The plate was then loaded into a plate reader, incubated at constant temperature, and cell growth was monitored in each well by the measurement of light scattering at 595 nm. Growth was monitored every 5 minutes until the cell culture attained a stationary growth phase. For each concentration of antibiotic, a percentage inhibition of growth was calculated at the time point corresponding to mid-exponential growth for the associated control wells (no antibiotic, plus or minus IPTG). For each antibiotic and condition (plus or minus IPTG), a plot of percent inhibition versus log of antibiotic concentration was generated and the IC50 determined.

Row | Compound | IC50 (+IPTG) [mg/L]
1 | CN(C)c1ccc(O)c2c1C[C@H]1C[C@H]3[C@H](N(C)C)C(O)=C(C(N)=O)C(=O)[C@@]3(O)C(O)=C1C2=O [Minocycline] | 0.003897 (≈ 0.00852 µM)
2 | CN[C@@H]1[C@H](O)[C@H](NC)[C@H]2O[C@@]3(O)C(=O)C[C@@H](C)O[C@H]3O[C@@H]2[C@H]1O [Spectinomycin] | <0.156

same assay, conditions: significant decrease in IC50 in the presence of inducer (IPTG)

Row | Compound | Sensitivity Increased ?
3 | CC[C@H](C)[C@H](N)C1=N[C@H](C(=O)N[C@@H](CC(C)C)C(=O)N[C@H](CCC(=O)O)C(=O)N[C@H](C(=O)N[C@H]2CCCCNC(=O)[C@H](CC(N)=O)NC(=O)[C@@H](CC(=O)O)NC(=O)[C@H](Cc3cnc[nH]3)NC(=O)[C@@H](Cc3ccccc3)NC(=O)[C@H]([C@@H](C)CC)NC(=O)[C@@H](CCCN)NC2=O)[C@@H](C)CC)CS1 [Bacitracin] ({Ileψ(thiazoline)Cys}-L[dE]IK[dOrn]I[dF]H[dD]N; lactam 4-C) | No
4 | CO/N=C(\C(=O)N[C@@H]1C(=O)N2C(C(=O)O)=C(COC(C)=O)CS[C@H]12)c1csc(N)n1 [Cefotaxime] | No
5 | CO[C@@]1(NC(=O)Cc2cccs2)C(=O)N2C(C(=O)O)=C(COC(N)=O)CS[C@@H]21 [Cefoxitin] | No
6 | O=C(N[C@H](CO)[C@H](O)c1ccc([N+](=O)[O-])cc1)C(Cl)Cl [Chloramphenicol] | Yes
7 | CC[C@H]1OC(=O)[C@H](C)[C@@H](O[C@H]2C[C@@](C)(OC)[C@@H](O)[C@H](C)O2)[C@H](C)[C@@H](O[C@@H]2O[C@H](C)C[C@H](N(C)C)[C@H]2O)[C@](C)(O)C[C@@H](C)C(=O)[C@H](C)[C@@H](O)[C@]1(C)O [Erythromycin] | Yes
8 | CC(=O)O[C@H]1C[C@@]2(C)[C@@H](C[C@@H](O)[C@H]3[C@@]4(C)CC[C@@H](O)[C@@H](C)[C@@H]4CC[C@@]32C)/C1=C(\CCC=C(C)C)C(=O)O [Fusidic acid] | Yes
9 | CCC[C@@H]1C[C@@H](C(=O)N[C@@H]([C@H]2O[C@H](SC)[C@H](O)[C@@H](O)[C@H]2O)[C@@H](C)O)N(C)C1 [Lincomycin] | Yes
10 | CCn1cc(C(=O)O)c(=O)c2ccc(C)nc21 [Nalidixic acid] | No
11 | CN[C@@H]1[C@H](O)[C@H](NC)[C@H]2O[C@@]3(O)C(=O)C[C@@H](C)O[C@H]3O[C@@H]2[C@H]1O [Spectinomycin] | Yes
12 | [H]/N=C(/N)N[C@H]1[C@H](O)[C@@H](O)[C@H](O[C@@H]2O[C@@H](C)[C@](O)(C=O)[C@H]2O[C@@H]2O[C@@H](CO)[C@H](O)[C@@H](O)[C@@H]2NC)[C@@H](N/C(N)=N\[H])[C@@H]1O [Streptomycin] | Yes
13 | NC[C@H]1O[C@H](O[C@H]2[C@H](O)[C@@H](O[C@H]3O[C@H](CO)[C@@H](O)[C@H](N)[C@H]3O)[C@H](N)C[C@@H]2N)[C@H](N)C[C@@H]1O [Tobramycin] | Yes
14 | CN[C@H](CC(C)C)C(=O)N[C@H]1C(=O)N[C@@H](CC(N)=O)C(=O)N[C@H]2C(=O)N[C@H]3C(=O)N[C@H](C(=O)N[C@H](C(=O)O)c4cc(O)cc(O)c4-c4cc3ccc4O)[C@H](O)c3ccc(c(Cl)c3)Oc3cc2cc(c3O[C@@H]2O[C@H](CO)[C@@H](O)[C@H](O)[C@H]2O[C@H]2C[C@](C)(N)[C@H](O)[C@H](C)O2)Oc2ccc(cc2Cl)[C@H]1O [Vancomycin] | No
15 | Gentamicin | Yes

test system: E. coli strain DJKGC4; experiment: Chitobiase-based cell growth assay, gentamicin dose response in 1536-well plate; conditions: 5 hours, 100 μM MNAG
Protocol: FIG. 6 is an E. coli dose response curve to gentamicin. E. coli strain DJKGC4 was inubated with various concentrations of gentamicin for 5 hours in a 1536 well plate in the presence of 100 μM 4-methylumbelliferyl N-acetyl β-D-glucosaminide (MNAG). After removal of background fluorescence, the inhibition of cell growth produced by each gentamicin concentration was calculated by comparison to the fluorescence generated by control cells growing in the absence of gentamicin.
To follow cell growth using the fluorogenic substrate MNAG, E. coli cells of strain DJKGC4 containing a chromosomally integrated, constitutively expressed chitobiase gene were added to an appropriate growth medium containing 100 μM MNAG, and the resulting cell suspension was dispensed into the wells of 1536-well microplates as described above. Following addition of test compounds and controls, plates were incubated at 37° C. and cell growth was followed by measurement of the fluorescent product of chitobiase activity, 4-methylumbelliferone using an Acquest reader (LJL Biosystems, excitation wavelength 360 nm, emission wavelength 425 nm).
An E. coli dose response to gentamicin was obtained by incubating E. coli strain DJKGC4 with various concentrations of gentamicin for 5 hours in a 1536-well plate in the presence of 100 μM MNAG. […]

Row | Compound | IC50 by the chitobiase-based assay compared with 384 well plate format, turbidity-based assays
16 | Gentamicin | indistinguishable
